Assay results taken from US8722665B2, “Cinnamido-pyrrolo[2,1-C][1,4]benzodiazepines as potential anticancer agents and process for the preparation thereof” (Council of Scientific & Industrial Research, priority 2008, dated 2014).

Legend:
Assay in all cases: In vitro cytotoxicity (SRB)
Assay type in all cases: cell-based, human
SNB-75 = SNB-75 (CNS); 48 h continuous drug exposure
Experimental: (§1) The compounds were evaluated for in vitro anticancer activity against sixty human tumour cells derived from nine cancer types (leukemia, non-small-cell lung, colon, CNS, melanoma, ovarian, prostate, and breast cancer) as shown in Table 1a. For each compound, dose response curves for each cell line were measured at a minimum of five concentrations at 10 fold dilutions. A protocol of 48 h continuous drug exposure was used and a sulforhodamine B (SRB) protein assay was used to estimate cell viability or growth. The concentration causing 50% cell growth inhibition (GI50), total cell growth inhibition (TGI 0% growth) and 50% cell death (LC50, −50% growth) compared with the control was calculated. The Log10 GI50 (concentration in mol/L causing 50% growth inhibition) values for Cinnamido-pyrrolo[2,1-c][1,4]benzodiazepine (8b) is listed in Table 2.

RXF 393 = RXF 393 (Renal); 48 h continuous drug exposure
Experimental: as §1

T-47D = T-47D (Breast); 48 h continuous drug exposure
Experimental: as §1

HCT-116 = HCT-116 (Colon); 48 h continuous drug exposure
Experimental: as §1

HCT-15 = HCT-15 (Colon); 48 h continuous drug exposure
Experimental: as §1

UACC-257 = UACC-257 (Melanoma); 48 h continuous drug exposure
Experimental: as §1

MDA-MB-468 = MDA-MB-468 (Breast); 48 h continuous drug exposure
Experimental: as §1

ACHN = ACHN (Renal); 48 h continuous drug exposure
Experimental: as §1

SNB-19 = SNB-19 (CNS); 48 h continuous drug exposure
Experimental: as §1

NCI/ADR-RES = NCI/ADR-RES (Breast); 48 h continuous drug exposure
Experimental: as §1

MDA-MB-435 = MDA-MB-435 (Breast); 48 h continuous drug exposure
Experimental: as §1

PC-3 = PC-3 (Prostate); 48 h continuous drug exposure
Experimental: as §1

NCI-H460 = NCI-H460 (Non-small cell lung); 48 h continuous drug exposure
Experimental: as §1

HS 578T = HS 578T (Breast); 48 h continuous drug exposure
Experimental: as §1

MCF7 = MCF7 (Breast); 48 h continuous drug exposure
Experimental: as §1

SW-620 = SW-620 (Colon); 48 h continuous drug exposure
Experimental: as §1

NCI-H522 = NCI-H522 (Non-small cell lung); 48 h continuous drug exposure
Experimental: as §1

HL-60(TB) = HL-60(TB) (Leukemia); 48 h continuous drug exposure
Experimental: as §1

DU-145 = DU-145 (Prostate); 48 h continuous drug exposure
Experimental: as §1

NCI-H23 = NCI-H23 (Non-small cell lung); 48 h continuous drug exposure
Experimental: as §1

SF-268 = SF-268 (CNS); 48 h continuous drug exposure
Experimental: as §1

SN12C = SN12C (Renal); 48 h continuous drug exposure
Experimental: as §1

K-562 = K-562 (Leukemia); 48 h continuous drug exposure
Experimental: as §1

RPMI-8226 = RPMI-8226 (Leukemia); 48 h continuous drug exposure
Experimental: as §1

OVCAR-3 = OVCAR-3 (Ovarian); 48 h continuous drug exposure
Experimental: as §1

NCI-H322M = NCI-H322M (Non-small cell lung); 48 h continuous drug exposure
Experimental: as §1

SF-539 = SF-539 (CNS); 48 h continuous drug exposure
Experimental: as §1

UACC-62 = UACC-62 (Melanoma); 48 h continuous drug exposure
Experimental: as §1

EKVX = EKVX (Non-small cell lung); 48 h continuous drug exposure
Experimental: as §1

KM12 = KM12 (Colon); 48 h continuous drug exposure
Experimental: as §1

COLO 205 = COLO 205 (Colon); 48 h continuous drug exposure
Experimental: as §1

A498 = A498 (Renal); 48 h continuous drug exposure
Experimental: as §1

A549/ATCC = A549/ATCC (Non-small cell lung); 48 h continuous drug exposure
Experimental: as §1

M14 = M14 (Melanoma); 48 h continuous drug exposure
Experimental: as §1

## COc1cc(/C=C/C(=O)N2CCN(C(=O)c3cc(OC)c(OC)c(OC)c3)CC2)ccc1OCCCOc1cc2c(cc1OC)C(=O)N1CCC[C@H]1C=N2 [8b, 7-methoxy-8-{3-(2-methoxy-4-(E)-3-oxo-3-[4-(3,4,5-trimethoxybenzoyl)piperazino]-1-propenylphenoxy)propoxy}-(11aS)-2,3,5,11^a-tetrahydro-5H-pyrrolo[2,1-c][1,4]benzo-diazepine-5-one]
SNB-75
  GI50: 260 nM
RXF 393
  GI50: 200 nM
T-47D
  GI50: 150 nM
HCT-116
  GI50: 200 nM
HCT-15
  GI50: 3390 nM
UACC-257
  GI50: 270 nM
MDA-MB-468
  GI50: 140 nM
ACHN
  GI50: 2750 nM
SNB-19
  GI50: 330 nM
NCI/ADR-RES
  GI50: 1470 nM
MDA-MB-435
  GI50: 170 nM
PC-3
  GI50: 340 nM
NCI-H460
  GI50: 330 nM
HS 578T
  GI50: 310 nM
MCF7
  GI50: 130 nM
SW-620
  GI50: 190 nM
NCI-H522
  GI50: 660 nM
HL-60(TB)
  GI50: 250 nM
DU-145
  GI50: 360 nM
NCI-H23
  GI50: 320 nM
SF-268
  GI50: 320 nM
SN12C
  GI50: 330 nM
K-562
  GI50: 150 nM
RPMI-8226
  GI50: 650 nM
OVCAR-3
  GI50: 290 nM
NCI-H322M
  GI50: 3070 nM
SF-539
  GI50: 250 nM
UACC-62
  GI50: 170 nM
EKVX
  GI50: 860 nM
KM12
  GI50: 280 nM
COLO 205
  GI50: 180 nM
A498
  GI50: 210 nM
A549/ATCC
  GI50: 480 nM
M14
  GI50: 370 nM
